In a melting point compilation (Tetko et al.; mined from patent text by program, amines drawn as free bases though some values may be those of a salt):

SMILES	melting point [°C]
CC[C@H](C)[C@H](OCc1cccc(F)c1F)[C@H]1[C@H]([N+](=O)[O-])[C@H](c2ccccc2)N[C@@H]1C(=O)NCC(=O)O	137 to 138
CC(C)(C)OC(=O)CN1CCC(=O)N(CC(=O)OC(C)(C)C)CCC1=O	180
CCCCCCCCCCCCC(C)(CO)CO	67 to 68
CC(C)(C)OC(=O)N1CCC(C(=O)c2ccccc2)CC1	91 to 93
COc1nc(Nc2cc(C)ccc2N)nc(OC)n1	180 to 183
O=c1[nH]c2ccccc2n1Cc1ccccc1	194
COC12CC(C3(c4cncc(Br)c4)N=NCS3)CN(C)C1Cc1cn(C)c3cccc2c13 (stereo unspecified)	131 to 137
COC(=O)c1ccc(OC)cc1-c1ccc(C(F)(F)F)cc1	93 to 94
COc1cc2c(Nc3ccc(Sc4nccn4C)c(Cl)c3)c(C#N)cnc2cc1/C=C/CCN(C)C	215 to 225
CC(C)(C)C(=O)OCN1C(=O)CC2(C1=O)C(=O)N(Cc1ccc(Cl)c(Cl)c1)c1ccccc12 (stereo unspecified)	134 to 135
COC(=O)c1ccn2cc(Cc3cccc(F)c3C)c(-c3ccccc3)c2c1	55
CCCN(CCCc1c[nH]c2ccc(F)cc12)C1COc2c(F)ccc(C(N)=O)c2C1 (stereo unspecified)	125
O=[N+]([O-])c1cc(Cl)cc(C(Cl)c2cc(Cl)cc([N+](=O)[O-])c2O)c1O	180
NS(=O)(=O)c1c(Cl)nc2ccc(C3CC3)nn12	194 to 196
COCCOC1CC(c2ccccc2)Oc2c1ccc1c2nc(C)n1C (stereo unspecified)	148 to 149
O=C(CCCN1CCC2(CC1)SC(c1ccc(Cl)cc1)c1ccccc12)c1ccc(F)cc1F (stereo unspecified)	98 to 100
Cc1ccc2cc(C=O)ccc2c1	110 to 111
COc1ccc(C(=O)c2ccc(-c3ccc(Cl)cc3)nc2)cc1OC	168 to 170
CCOc1ccc(/C=C(\C)C(=O)O)cc1	180
CC(C)CCOc1ccc(C(=O)c2c(N)sc3c2CCN(Cc2ccccc2)C3)cc1	106 to 107
COC(=O)N(C)CCCCCC(=O)OC[C@@H]1CC(c2ccc(-c3ccc(N4C[C@H](Cn5ccnn5)OC4=O)cc3F)cn2)=NO1	103
Cc1cc(C)cc(-c2cc(O)c(Sc3ccccc3)c(=O)o2)c1	210 to 211
Cc1nc(CN(C)C(=O)N[C@H](C(=O)N[C@@H](Cc2ccccc2)[C@@H](O)C[C@H](Cc2ccccc2)NC(=O)OCc2cccnc2)C(C)C)cs1	66 to 69
OCC1OC(n2cnc3c(NCc4cccc(O)c4)ncnc32)C(O)C1O (stereo unspecified)	196
CONS(=O)(=O)c1c(C)nn(C)c1Cl	120 to 122
COC(=O)c1ccc(C(=O)OC)c(SCc2ccccc2)c1	90 to 93.5

SMILES	melting point [°C]
COC(=O)CNC(=O)[C@H](NC(=O)OCC1c2ccccc2-c2ccccc21)C(C)C	148 to 150
COc1ccc(N(C(=O)CN2C(=O)C(Cc3nn(Cc4ccccc4)c4ccccc34)(OC)C(=O)N(c3cccnc3)c3ccccc32)C(C)C)cc1 (stereo unspecified)	223 to 224
COc1cc(N)c(Cl)cc1C(=O)OCC12CCCN(CCC1)C2	152 to 154
CC(=O)Nc1cccc(C#Cc2ccc(OC3CN4CCC3CC4)nn2)c1 (stereo unspecified)	132 to 134
CCCCCCCCCCCCOC(=O)c1cc(N=NN(CCO)c2ccc(C)cc2)ccc1[N+](=O)[O-]	64 to 66
CCOC(=O)NCc1cc(-c2ccccc2)no1	82
Cc1c(C(=O)Nc2ccc(N3CCN(CCCO)CC3)c(C#N)c2)cnn1-c1ccc(Cl)cc1	213
CC(=O)Nc1ccc2c(c1)CC2OC#N (stereo unspecified)	163 to 168
O=C(NC(=O)c1c(Cl)cccc1Cl)Nc1cc(-c2ccc(C(F)(F)F)cc2)on1	227 to 230
COc1cc(N)c(Cl)cc1C(=O)NCC1CCN(CCCCSc2ccccc2)CC1	102 to 105
COc1cc(Nc2c(C#N)cnc3ccc(/C=C/CCN4CCOCC4)cc23)c(Cl)cc1Cl	95 to 96
CCOCc1nc2c(N)nc3cc(OCCCCCCNC(C)=O)ccc3c2n1CC(C)(C)NC(=O)NC(C)C	90 to 110
CN1C(=O)C(C(=O)Nc2ccc(C(F)(F)F)cc2)S(=O)(=O)c2cc(F)ccc21 (stereo unspecified)	146 to 148
NC(=S)C(c1ccc(Cl)cc1)c1c(Cl)cc(-n2ncc(=O)[nH]c2=O)cc1Cl (stereo unspecified)	263
CCCCCCCCOc1ccc2nc(C(=O)NCC(=O)O)c(O)cc2c1	153 to 155
Cc1cccc(Cl)c1N1Cc2cnc(Nc3ccccc3)nc2N(c2cccc(CCN)c2)C1=O	192
O=C(NC1CCn2c(CCc3ccccc3)nc3cccc1c32)c1ccccn1 (stereo unspecified)	173
C[C@H]1C=CC(S(=O)(=O)c2ccccc2)=C[C@H](C)[C@H]1O	100 to 102
COC(=O)CCc1cc(C(=O)c2cccc(C(=O)OC)n2)ccc1OC	97 to 98
CCN(CC)CCNC(=O)c1c[nH]c2ccc(I)cc2c1=O	234 to 236
O=c1ssc(N2CCc3ccccc3CC2)c1Cl	141
COc1ccccc1SCCCCCCCC(=O)O	62 to 63
COc1ccc(Nc2ccccc2)c(NS(C)(=O)=O)c1	109 to 111
CN1CCN=C(c2ccccc2)c2cc(C#N)ccc21	149 to 150
CCC12CCC3C4CCC(=O)C=C4CCC3C1CCC2OC1CCCCO1 (stereo unspecified)	148 to 152
CCCCCCNC(C)=C1C(=O)OC(=O)C(C(C)=O)=C1O	80 to 82

SMILES	melting point [°C]
CNC(=S)c1cnn(-c2cccc(Cl)c2)c1Cl	128 to 130
CCOc1ccc(C2=NNC(=O)CC2)cc1OCC	142 to 143
CCSc1cc(C)nc(SCC)c1NC(=O)CCCSc1nc2ccccc2s1	119 to 120
CCCCCCCCCCCCCCCCCCC(N)(CO)CO	76 to 80
CC(C)OC(=O)c1cc(-n2c(=O)[nH]c3c(c2=O)CCCC3)c(F)cc1Cl	203 to 205
CCOC(=O)c1cccc(C(=O)CC)c1OCCN(CC)CC	103 to 105
O=C(NCCc1c[nH]c2ccccc12)c1cccnc1	150 to 152
O=[N+]([O-])c1cccc(/C=C/c2nc(C3CCCCCC3)cs2)c1	60
CC(=O)OC(C)C1CCC2C3CC=C4C=CCCC4(C)C3CCC12C (stereo unspecified)	103 to 104
CNc1c(F)cc2c(=O)c(C(=O)O)cn(-c3cc(N)c(F)cc3Cl)c2c1Cl	273
CCCCc1ccc2c(c1)C(=O)N(c1ccc3c(ccn3C)c1)C2	167 to 168
CCCCNC(=N)OC(=N)N(CCCC)c1cccc(-c2ccnc3c(C(=O)c4cccs4)cnn23)c1	180 to 181
O=C(c1cccs1)c1cnn2c(-c3cccc(NCc4ccc(Cl)cc4)c3)ccnc12	149 to 152
O=S(=O)(Cc1ccc(O)cc1)Nc1ncc(-c2ccc(O)cc2)nc1Cc1ccccc1	194 to 196
CN1CCCC1=NC(=O)Nc1ccc(Cl)c(C(F)(F)F)c1	175
COc1ccc(S(=O)(=O)N2C(=O)C(OCC(=O)N3CCN(c4ccncc4)CC3)(c3ccccc3OC(C)C)c3cc(Cl)ccc32)c(OC)c1 (stereo unspecified)	201 to 203
CC1(C2CCCC2)Cc2cc(OCCCCC(=O)O)c(Cl)c(Cl)c2C1=O (stereo unspecified)	106 to 108
CC(=O)C(=Cc1ccc(C=O)c([N+](=O)[O-])c1)C(C)=O	102 to 104
Cc1cnc(CO)c(Cl)c1N1CCOCC1	54 to 55
c1ccc(CC2CCc3ccccc3N2)cc1 (stereo unspecified)	187 to 190
CC(C)C[C@H](CN)CC(=O)O	192 to 196
CCCCOc1c(CNC(=O)OC(C)(C)C)n(CC2CC2)c(=O)c2ccc(OCc3ccccc3)cc12	106 to 107
O=C1CCC(c2ccc(CO)cc2)CC1	58 to 60
Cc1ccc2c(c1)C1CN(CCCC(=O)c3ccc(F)cc3)CCC1N2 (stereo unspecified)	154 to 158
Fc1ccc2c(c1)Oc1ccccc1-c1nc(S)[nH]c1-2	299 to 300
CS(=O)(=O)NC(c1ccccc1)c1ccccc1	148 to 150

SMILES	melting point [°C]
CCc1cc(Oc2ccc([C@@H]3OC(=O)N[C@@H]3Cc3cccc(OC(F)(F)C(F)F)c3)cc2)ccc1Cl (racemic)	100 to 101
COc1ccc(Sc2ccnc(Nc3ccc(OCCN(C)C)cc3)n2)cc1	112 to 113
CCn1cc(C(=O)c2ccccc2)c(=O)c2cn(C)nc21	217 to 218
CC1CC(=O)c2c(OS(=O)(=O)c3cccs3)ccc(-c3nccs3)c2C1 (stereo unspecified)	111 to 113
COC(=O)c1ccc(C(=O)Nc2ccccc2OC)cc1	119 to 121
CC(=O)c1ccc(OCCCC(=O)O)c(C)c1	114 to 116
O=[N+]([O-])c1cccc(C2C3=C(CCCS3)NC3=C2SCCC3)c1	> 260
Cc1ccc(S(=O)(=O)NCCC2CCC(CC(=O)O)CC2)cc1 (stereo unspecified)	104 to 105
CCOC(=O)CSC(C)=NO	90 to 92
CC(C)(C)OC(=O)C(N)c1nc(-c2ncn3c2C2CCN2C(=O)c2cc(F)ccc2-3)no1 (stereo unspecified)	147 to 150
COC(=O)C1=C(CF)NC(C)=C(C(=O)OC(C)C)C1c1cccc(Cl)c1Cl (stereo unspecified)	148 to 149
Nc1ccc2ccc(Nc3ccccc3)nc2n1	250
CCN(CC)C(=O)c1ccc[nH]1	78.6 to 79.9
COc1ccc2cc(C3SCCCS3)ccc2c1	190
CCc1c2ccccc2nc2c1c(C)nn2-c1ccccn1	112 to 114
O=C(O)CCC(=O)c1ccc(O)c(Cl)c1	155 to 160
COCCNc1nccc(-c2ccnc(Nc3cccc(Cl)c3)n2)c1Cl	172
COc1cc(Nc2c(C#N)cnc3cc(-c4cnc(C=O)n4C)ccc23)c(Cl)cc1Cl	186 to 189
Nc1nc(-c2ccc(CCCCCl)s2)cs1	99 to 100
NS(=O)(=O)c1ccc(C2=NNC(C(=O)O)C2)cc1 (stereo unspecified)	224 to 226
CCc1ccc2nc(Cl)nc(Cl)c2c1	80 to 83
N#CCOc1ccc2cc(-c3cc4ccccc4o3)ccc2c1Cl	162 to 163
CC(C)(C)OC(=O)N1C[C@H]2[C@@H](C1)C(c1ccccc1)(c1ccccc1)CC[C@@H]2O	190
